Reference: patent US10383880B2 (Reset Therapeutics, Inc., priority 2012, dated 2019)

Tested on: Per2-dLuc U2OS reporter cells
Assay: Per2 assay for evaluating the potency of test compounds (high-throughput circadian assay)
Assay type: cell-based
Details: Homo sapiens, U2OS, stable U2OS reporter cells harboring Per2-dLuc; luminescence monitored over 4-5 days at 35° C.
Description: Compounds were screened by using a high-throughput circadian assay system as previously described in Zhang, E. E. et al. Cell, 2009, 139, 199-210. In brief, stable U2OS reporter cells harboring Per2-dLuc were plated at a density of 8,000 cells/well in Corning 96-well, solid white, flat bottom, TC-treated microplates (Corning®), and incubated for 24 hours at 37° C. in the presence of 5% CO2. The cells were then synchronized by serum shock by media exchange to a minimal explant media (10 mM HEPES (pH 7.0), 2% B27, 1×PSG (Invitrogen®), and 1.0 mM beetle luciferin (Promega®)) followed by the addition of the compounds of formula I dissolved in dimethylsulfoxide (0.5% final dimethylsulfoxide concentration). Gene expression was monitored by measuring luminescence (TecanR M200) over 4-5 days at 35° C. The period, amplitude, and phase of the associated circadian rhythms were determined using Multicycle™ software (Actimetrics, Inc). EC50 values of the compounds of formula I were calculated using Graphpad™ (Prism®).

SMILES	EC50
CC(=O)N1CCC(N(CC(O)Cn2c3ccccc3c3ccccc32)S(C)(=O)=O)CC1 (stereo not drawn) [Compound 59, N-(3-(9H-Carbazol-9-yl)-2-hydroxypropyl)-N-(1-acetylpiperidin-4-yl)methanesulfonamide]	9580 nM
CN1CCCN(CC(C)(O)Cn2c3ccc(F)cc3c3cc(F)ccc32)S1(=O)=O (stereo not drawn) [Compound 170, 2-(3-(3,6-Difluoro-9H-carbazol-9-yl)-2-hydroxy-2-methylpropyl)-6-methyl-1,2,6-thiadiazinane-1,1-dioxide]	1260 nM
CC(O)(CN1CCC(C)(C)S1(=O)=O)Cn1c2ccc(F)cc2c2cc(F)ccc21 (stereo not drawn) [Compound 180, 2-(3-(3,6-Difluoro-9H-carbazol-9-yl)-2-hydroxy-2-methylpropyl)-5,5-dimethylisothiazolidine-1,1-dioxide]	1650 nM
COC(=O)N1CCC(N(CC(O)Cn2c3ccccc3c3ccccc32)S(C)(=O)=O)CC1 (stereo not drawn) [Compound 129, Methyl 4-(N-(3-(9H-carbazol-9-yl)-2-hydroxypropyl)methylsulfonamido)piperidine-1-carboxylate]	386 nM
CS(=O)(=O)N(Cc1ccco1)CC(O)Cn1c2ccccc2c2ccc(F)cc21 (stereo not drawn) [Compound 237, N-(3-(2-Fluoro-9H-carbazol-9-yl)-2-hydroxy-propyl)-N-(furan-2-yl-methyl)methane-sulfonamide]	594 nM
O=S1(=O)CCCCN1CC(O)Cn1c2ccc(F)cc2c2c(F)cccc21 (stereo not drawn) [Compound 107, N-(3-(3,5-Diflouoro-9H-carbazol-9-yl)-2-hydroxypropyl)-1,2-thiazinane 1,1-dioxide]	240 nM
O=S1(=O)N(CC(O)Cn2c3ccc(F)cc3c3cc(F)ccc32)CCC1(F)F (stereo not drawn) [Compound 185, 2-(3-(3,6-Difluoro-9H-carbazol-9-yl)-2-hydroxypropyl)-5,5-difluoroisothiazolidine-1,1-dioxide]	45 nM
O=S1(=O)NCCN1CC(O)Cn1c2ccc(F)cc2c2cc(F)ccc21 (stereo not drawn) [Compound 175]	35 nM
CS(=O)(=O)N(CC(O)Cn1c2ccccc2c2ccccc21)c1cccc(Cl)c1 (stereo not drawn) [Compound 64, N-(3-(9H-Carbazol-9-yl)-2-hydroxypropyl)-N-(3-chlorophenyl)methanesulfonamide]	1000 nM
CCCN(CC(O)Cn1c2cc(F)ccc2c2ccc(F)cc21)S(C)(=O)=O (stereo not drawn) [Compound 157, N-(3-(2,7-Difluoro-9H-carbazol-9-yl)-2-hydroxypropyl)-N-propylmethanesulfonamide]	895 nM
CC1CC(N(CC(O)Cn2c3ccccc3c3ccccc32)S(C)(=O)=O)C1 (stereo not drawn) [Compound 131, N-(3-(9H-Carbazol-9-yl)-2-hydroxypropyl)-N-(3-methylcyclobutyl)methanesulfonamide]	79 nM
CC1CCC(N(CC(O)Cn2c3ccccc3c3ccccc32)S(C)(=O)=O)CC1 (stereo not drawn) [Compound 126, N-(3-(9H-Carbazol-9-yl)-2-hydroxypropyl)-N-(4-methylcyclohexyl)methanesulfonamide]	425 nM
COCCCS(=O)(=O)N(Cc1ccco1)CC(O)Cn1c2ccccc2c2ccccc21 (stereo not drawn) [Compound 9, N-(3-(9H-Carbazol-9-yl)-2-hydroxypropyl)-N-(furan-2-ylmethyl)-3-methoxypropane-1-sulfonamide]	2860 nM
CCN(CC(O)Cn1c2ccccc2c2ccccc21)S(C)(=O)=O (stereo not drawn) [Compound 45, N-(3-(9H-Carbazol-9-yl)-2-hydroxypropyl)-N-ethylmethanesulfonamide]	398 nM
O=S(=O)(N(Cc1ccco1)CC(O)Cn1c2ccccc2c2ccccc21)C(F)(F)F (stereo not drawn) [Compound 83, N-(3-(9H-Carbazol-9-yl)-2-hydroxypropyl)-1,1,1-trifluoro-N-(furan-2-ylmethyl)methanesulfonamide]	413 nM
CS(=O)(=O)N(Cc1ccc(F)cc1)CC(O)Cn1c2ccccc2c2ccccc21 (stereo not drawn) [Compound 60, N-(3-(9H-Carbazol-9-yl)-2-hydroxypropyl)-N-(4-fluorobenzyl)methanesulfonamide]	1220 nM
CS(=O)(=O)N(CC(O)Cn1c2ccccc2c2ccccc21)C1CCC(F)(F)CC1 (stereo not drawn) [Compound 128, N-(3-(9H-Carbazol-9-yl)-2-hydroxypropyl)-N-(4,4-difluorocyclohexyl)methanesulfonamide]	372 nM
CC(O)(CN1CCN(C2CCC2)S1(=O)=O)Cn1c2ccc(F)cc2c2cc(F)ccc21 (stereo not drawn) [Compound 235]	6460 nM
CC(C)N1CCCN(CC(C)(O)Cn2c3ccc(F)cc3c3cc(F)ccc32)S1(=O)=O (stereo not drawn) [Compound 218, 2-(3-(3,6-Difluoro-9H-carbazol-9-yl)-2-hydroxy-2-methylpropyl)-6-isopropyl-1,2,6-thiadiazinane-1,1-dioxide]	9780 nM

SMILES	EC50
O=S1(=O)c2ccccc2CCN1CC(O)Cn1c2ccccc2c2ccccc21 (stereo not drawn) [Compound 43, N-(3-(9H-Carbazol-9-yl)-2-hydroxypropyl)-3,4-dihydro-2H-benzo[e][1,2]thiazine 1,1-dioxide]	3000 nM
CS(=O)(=O)N(Cc1ccccc1F)CC(O)Cn1c2ccccc2c2ccccc21 (stereo not drawn) [Compound 68, N-(3-(9H-Carbazol-9-yl)-2-hydroxypropyl)-N-(2-fluorobenzyl)methanesulfonamide]	1990 nM
O=S1(=O)N(CC(O)Cn2c3ccc(F)cc3c3cc(F)ccc32)CCCN1C1CCC1 (stereo not drawn) [Compound 228, 2-(3-(3,6-Difluoro-9H-carbazol-9-yl)-2-hydroxypropyl)-6-cyclobutyl-1,2,6-thiadiazinane-1,1-dioxide]	3420 nM
CC(C)N1CCCN(CC(O)Cn2c3ccc(F)cc3c3cc(F)ccc32)S1(=O)=O (stereo not drawn) [Compound 217, 2-(3-(3,6-Difluoro-9H-carbazol-9-yl)-2-hydroxypropyl)-6-isopropyl-1,2,6-thiadiazinane-1,1-dioxide]	1670 nM
O=S(=O)(c1ccccc1)N(Cc1ccco1)CC(O)Cn1c2ccccc2c2ccccc21 (stereo not drawn) [Compound 4, N-(3-(9H-Carbazol-9-yl)-2-hydroxypropyl)-N-(furan-2-ylmethyl)benzenesulfonamide]	2500 nM
Cn1ccc2ccc(N(CC(O)Cn3c4ccccc4c4ccccc43)S(C)(=O)=O)cc21 (stereo not drawn) [Compound 66, N-(3-(9H-Carbazol-9-yl)-2-hydroxypropyl)-N-(1-methyl-1H-indol-6-yl)methanesulfonamide]	9900 nM
CCN1CCN(CC(O)Cn2c3ccc(F)cc3c3cc(F)ccc32)S1(=O)=O (stereo not drawn) [Compound 216]	150 nM
COc1ccc(N(CC(O)Cn2c3ccccc3c3ccccc32)S(C)(=O)=O)cc1 (stereo not drawn) [Compound 21, N-(3-(9H-Carbazol-9-yl)-2-hydroxypropyl)-N-(4-methoxyphenyl)methanesulfonamide]	440 nM
CS(=O)(=O)N(CC(O)Cn1c2ccccc2c2ccccc21)CC1CCCCO1 (stereo not drawn) [Compound 53, N-(3-(9H-Carbazol-9-yl)-2-hydroxypropyl)-N-((tetrahydro-2H-pyran-2-yl)methyl)methanesulfonamide]	578 nM
CN(CC(O)Cn1c2ccccc2c2ccccc21)S(C)(=O)=O (stereo not drawn) [Compound 32, N-(3-(9H-Carbazol-9-yl)-2-hydroxypropyl)-N-methylmethanesulfonamide]	100 nM
CS(=O)(=O)N(CC(O)Cn1c2ccccc2c2ccccc21)c1ccccc1Cl (stereo not drawn) [Compound 77, N-(3-(9H-Carbazol-9-yl)-2-hydroxypropyl)-N-(2-chlorophenyl)methanesulfonamide]	750 nM
COC1CCS(=O)(=O)N(CC(O)Cn2c3ccccc3c3ccccc32)C1 (stereo not drawn) [Compound 112, N-(3-(9H-Carbazol-9-yl)-2-hydroxypropyl)-4-methoxy-1,2-thiazinane-1,1-dioxide]	44 nM
CS(=O)(=O)N(CC(O)Cn1c2ccccc2c2ccccc21)c1ccc2ccccc2c1 (stereo not drawn) [Compound 48, N-(3-(9H-Carbazol-9-yl)-2-hydroxypropyl)-N-(naphthalen-2-yl)methanesulfonamide]	1500 nM
CS(=O)(=O)N(CC(O)Cn1c2ccccc2c2ccccc21)C1CCc2ccccc21 (single isomer, unassigned) [Compound 61, N-(3-(9H-Carbazol-9-yl)-2-hydroxypropyl)-N-(2,3-dihydro-1H-inden-1-yl)methanesulfonamide]	4470 nM
CCCN(CC(O)Cn1c2ccc(F)cc2c2ccc(F)cc21)S(C)(=O)=O (stereo not drawn) [Compound 163, N-(3-(2,6-Difluoro-9H-carbazol-9-yl)-2-hydroxypropyl)-N-propylmethanesulfonamide]	206 nM
CC(C)c1ccc(N(CC(O)Cn2c3ccc(F)cc3c3cc(F)ccc32)S(C)(=O)=O)cc1 (stereo not drawn) [Compound 205, N-(3-(3,6-Difluoro-9H-carbazol-9-yl)-2-hydroxypropyl)-N-(4-isopropylphenyl)methanesulfonamide]	1210 nM
CS(=O)(=O)N(CC(O)Cn1c2ccc(F)cc2c2cc(F)ccc21)C1CCC1 (stereo not drawn) [Compound 119, N-Cyclobutyl-N-(3-(3,6-difluoro-9H-carbazol-9-yl)-2-hydroxypropyl)methanesulfonamide]	37 nM
CC1CCN(CC(O)Cn2c3ccc(F)cc3c3cc(F)ccc32)S1(=O)=O (stereo not drawn) [Compound 177]	202 nM
O=S(=O)(CC1CC1)N(Cc1ccco1)CC(O)Cn1c2ccccc2c2ccccc21 (stereo not drawn) [Compound 15, N-(3-(9H-Carbazol-9-yl)-2-hydroxypropyl)-1-cyclopropyl-N-(furan-2-ylmethyl)methanesulfonamide]	592 nM

Same assay, conditions: stable U2OS reporter cells harboring Per2-dLuc; luminescence monitored over 4-5 days at 35° C.

SMILES	EC50
CS(=O)(=O)N(CC(O)Cn1c2ccccc2c2ccccc21)C1CC2CCC1O2 (single isomer, unassigned) [Compound 140B, N-(3-(9H-Carbazol-9-yl)-2-hydroxypropyl)-N-(7-oxabicyclo[2.2.1]heptan-2-yl)methanesulfonamide]	823 nM
